Data as given in patent US12421222B2 (AUGUSTINE THERAPEUTICS, priority 2021, dated 2025).

Tested on: acetylated tubulin (Lys40) in HeLa cells
Test: Acetylated α-tubulin measurement in vitro (immunocytochemistry)
Type: cell-based
Details: Homo sapiens, 6 hours incubation, acetylated tubulin (Lys40) by immunocytochemistry, read-out: IC50 (Tubulin deacetylation)
Method in brief: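 HeLa cells in serum-free medium treated 6 h at 37 °C (final DMSO 0.1–0.4%), then PFA-fixed and immunostained for acetyl-Lys40 and total α-tubulin; high-content imaging.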

IC50 [nM]	Compound
100 to 500	Cn1cc2c(SCC(=O)c3ccc(CNC(=O)C4CC4(F)F)s3)nc(C(F)(F)F)nc2n1 (stereo not drawn) [Example 111, 2,2-difluoro-N-((5-(2-((2-methyl-6-(trifluoromethyl)-2H-pyrazolo[3,4-d]pyrimidin-4-yl)thio)acetyl)thiophen-2-yl)methyl)cyclopropane-1-carboxamide]
100 to 500	O=C(CO)NCc1ccc(C(=O)CSc2nc(C(F)(F)F)nc3cc(C4CC4)nn23)s1 [Example 112, N-((5-(2-((7-cyclopropyl-2-(trifluoromethyl)pyrazolo[1,5-a][1,3,5]triazin-4-yl)thio)acetyl)thiophen-2-yl)methyl)-2-hydroxyacetamide]
≤ 100	O=C(CO)NCc1ccc(C(=O)CSc2nc(C(F)(F)F)nc3ncccc23)s1 [Example 113, 2-hydroxy-N-((5-(2-((2-(trifluoromethyl)pyrido[2,3-d]pyrimidin-4-yl)thio)acetyl)thiophen-2-yl)methyl)acetamide]
≤ 100	O=C(CSc1nc(C(F)(F)F)nc2ncccc12)c1ccc(CNC(=O)C2CC2(F)F)s1 (stereo not drawn) [Example 114, 2,2-difluoro-N-((5-(2-((2-(trifluoromethyl)pyrido[2,3-d]pyrimidin-4-yl)thio)acetyl)thiophen-2-yl)methyl)cyclopropane-1-carboxamide]
500 to 1000	COc1ccc2nc(C)nc(SCC(=O)c3ccc(CCN4CCC(O)C4=O)s3)c2c1 (stereo not drawn) [Example 115, 3-hydroxy-1-(2-(5-(2-((6-methoxy-2-methylquinazolin-4-yl)thio)acetyl)thiophen-2-yl)ethyl)pyrrolidin-2-one]
100 to 500	CN(Cc1ccc(C(=O)CSc2nc(C(F)(F)F)nc3nn(C)cc23)s1)C(=O)CO [Example 116, 2-hydroxy-N-methyl-N-((5-(2-((2-methyl-6-(trifluoromethyl)-2H-pyrazolo[3,4-d]pyrimidin-4-yl)thio)acetyl)thiophen-2-yl)methyl)acetamide]
≤ 100	O=C(CO)NCc1ccc(C(=O)CSc2nc3ccc(C(F)(F)F)nc3o2)s1 [Example 117, 2-hydroxy-N-((5-(2-((5-(trifluoromethyl)oxazolo[5,4-b]157yrrolid-2-yl)thio)acetyl)thiophen-2-yl)methyl)acetamide]
100 to 500	O=C(CO)NCc1ccc(C(=O)CSc2nc3ncc(C(F)(F)F)cc3o2)s1 [Example 118, 2-hydroxy-N-((5-(2-((6-(trifluoromethyl)oxazolo[4,5-b]157yrrolid-2-yl)thio)acetyl)thiophen-2-yl)methyl)acetamide]
≤ 100	Cc1nc(SCC(=O)c2ccc(CNC(=O)CO)s2)c2cc(C(F)(F)F)cnc2n1 [Example 119, 2-hydroxy-N-((5-(2-((2-methyl-6-(trifluoromethyl)pyrido[2,3-d]pyrimidin-4-yl)thio)acetyl)thiophen-2-yl)methyl)acetamide]
100 to 500	Cc1nc(SCC(=O)c2ccc(CNC(=O)C3CC3(F)F)s2)c2cc(OC(F)(F)F)ccc2n1 (stereo not drawn) [Example 120, 2,2-difluoro-N-((5-(2-((2-methyl-6-(trifluoromethoxy)quinazolin-4-yl)thio)acetyl)thiophen-2-yl)methyl)cyclopropane-1-carboxamide]
≤ 100	COc1cc2c(SCC(=O)c3ccc(CNC(=O)CO)s3)nc(C)nc2cn1 [Example 121, 2-hydroxy-N-((5-(2-((6-methoxy-2-methylpyrido[3,4-d]pyrimidin-4-yl)thio)acetyl)thiophen-2-yl)methyl)acetamide]
100 to 500	O=C(CSc1nc(C(F)(F)F)nc2ncccc12)c1ccc(CNS(=O)(=O)C2CC2)s1 [Example 122, N-((5-(2-((2-(trifluoromethyl)pyrido[2,3-d]pyrimidin-4-yl)thio)acetyl)thiophen-2-yl)methyl)cyclopropanesulfonamide]
100 to 500	O=C(CSc1nc(C(F)(F)F)nc2ncccc12)c1ccc(CNS(=O)(=O)CC(F)(F)F)s1 [Example 123, 2,2,2-trifluoro-N-((5-(2-((2-(trifluoromethyl)pyrido[2,3-d]pyrimidin-4-yl)thio)acetyl)thiophen-2-yl)methyl)ethane-1-sulfonamide]
≤ 100	Cc1nc(SCC(=O)c2ccc(CNC(=O)CO)s2)c2cc(F)cnc2n1 [Example 124, N-((5-(2-((6-fluoro-2-methylpyrido[2,3-d]pyrimidin-4-yl)thio)acetyl)thiophen-2-yl)methyl)-2-hydroxyacetamide]
≤ 100	COCCn1ncc2c(SCC(=O)c3ccc(CNC(=O)CO)s3)nc(C(F)(F)F)nc21 [Example 125, 2-hydroxy-N-((5-(2-((1-(2-methoxyethyl)-6-(trifluoromethyl)-1H-pyrazolo[3,4-d]pyrimidin-4-yl)thio)acetyl)thiophen-2-yl)methyl)acetamide]
≤ 100	Cc1nc(SCC(=O)c2ccc(CNC(=O)CO)s2)c2cc(OC(F)(F)F)ccc2n1 [Example 126, 2-hydroxy-N-((5-(2-((2-methyl-6-(trifluoromethoxy)quinazolin-4-yl)thio)acetyl)thiophen-2-yl)methyl)acetamide]
100 to 500	CCS(=O)(=O)NCc1ccc(C(=O)CSc2nc(C(F)(F)F)nc3ncccc23)s1 [Example 127, N-((5-(2-((2-(trifluoromethyl)pyrido[2,3-d]pyrimidin-4-yl)thio)acetyl)thiophen-2-yl)methyl)ethanesulfonamide]

IC50 [nM]	Compound
100 to 500	COc1ccc2nc(C)nc(SCC(=O)c3ccc([C@H](C)NC(=O)CO)s3)c2c1 [Example 128, (S)-2-hydroxy-N-(1-(5-(2-((6-methoxy-2-methylquinazolin-4-yl)thio)acetyl)thiophen-2-yl)ethyl)acetamide]
100 to 500	C[C@H](NC(=O)CO)c1ccc(C(=O)CSc2nc(C(F)(F)F)nc3c2cnn3C)s1 [Example 130, (S)-2-hydroxy-N-(1-(5-(2-((1-methyl-6-(trifluoromethyl)-1H-pyrazolo[3,4-d]pyrimidin-4-yl)thio)acetyl)thiophen-2-yl)ethyl)acetamide]
100 to 500	CN(Cc1ccc(C(=O)CSc2nc(C(F)(F)F)nc3ncccc23)s1)C(=O)CO [Example 131, 2-hydroxy-N-methyl-N-((5-(2-((2-(trifluoromethyl)pyrido[2,3-d]pyrimidin-4-yl)thio)acetyl)thiophen-2-yl)methyl)acetamide]
≤ 100	COCCn1cc2c(SCC(=O)c3ccc(CNC(=O)CO)s3)nc(C(F)(F)F)nc2n1 [Example 132, 2-hydroxy-N-((5-(2-((2-(2-methoxyethyl)-6-(trifluoromethyl)-2H-pyrazolo[3,4-d]pyrimidin-4-yl)thio)acetyl)thiophen-2-yl)methyl)acetamide]
100 to 500	O=C(CO)NCc1ccc(C(=O)CSc2nc(C(F)(F)F)nc3c2cnn3C2CC2)s1 [Example 133, N-((5-(2-((1-cyclopropyl-6-(trifluoromethyl)-1H-pyrazolo[3,4-d]pyrimidin-4-yl)thio)acetyl)thiophen-2-yl)methyl)-2-hydroxyacetamide]
100 to 500	COc1ccc2nc(C(F)(F)F)nc(SCC(=O)c3ccc(CNC(=O)C(C)(C)O)s3)c2c1 [Example 134, 2-hydroxy-N-((5-(2-((6-methoxy-2-(trifluoromethyl)quinazolin-4-yl)thio)acetyl)thiophen-2-yl)methyl)-2-methylpropanamide]
≤ 100	CCn1cc2c(SCC(=O)c3ccc(CNC(=O)CO)s3)nc(C(F)(F)F)nc2n1 [Example 135, N-((5-(2-((2-ethyl-6-(trifluoromethyl)-2H-pyrazolo[3,4-d]pyrimidin-4-yl)thio)acetyl)thiophen-2-yl)methyl)-2-hydroxyacetamide]
100 to 500	CCn1ncc2c(SCC(=O)c3ccc(CNC(=O)CO)s3)nc(C(F)(F)F)nc21 [Example 136, N-((5-(2-((1-ethyl-6-(trifluoromethyl)-1H-pyrazolo[3,4-d]pyrimidin-4-yl)thio)acetyl)thiophen-2-yl)methyl)-2-hydroxyacetamide]
100 to 500	COc1ccc2nc(C)nc(SCC(=O)c3ccc(CN4CCOCC4=O)s3)c2c1 [Example 137, 4-((5-(2-((6-methoxy-2-methylquinazolin-4-yl)thio)acetyl)thiophen-2-yl)methyl)morpholin-3-one]
100 to 500	O=C(CSc1nc(C(F)(F)F)nc2ncccc12)c1ccc(CN2CCOCC2=O)s1 [Example 138, 4-((5-(2-((2-(trifluoromethyl)pyrido[2,3-d]pyrimidin-4-yl)thio)acetyl)thiophen-2-yl)methyl)morpholin-3-one]
100 to 500	COc1ccc2nc(C(F)F)nc(SCC(=O)c3ccc(CNC(=O)CO)s3)c2c1 [Example 139, N-((5-(2-((2-(difluoromethyl)-6-methoxyquinazolin-4-yl)thio)acetyl)thiophen-2-yl)methyl)-2-hydroxyacetamide]
100 to 500	COc1cnc2nc(C)nc(SCC(=O)c3ccc(CNC(=O)CO)s3)c2c1 [Example 140, 2-hydroxy-N-((5-(2-((6-methoxy-2-methylpyrido[2,3-d]pyrimidin-4-yl)thio)acetyl)thiophen-2-yl)methyl)acetamide]
100 to 500	COc1ccc2nc(C)nc(SCC(=O)c3ccc(CN4CCC(O)C4=O)s3)c2c1 (stereo not drawn) [Example 141, 3-hydroxy-1-((5-(2-((6-methoxy-2-methylquinazolin-4-yl)thio)acetyl)thiophen-2-yl)methyl)pyrrolidin-2-one]
≤ 100	Cc1nc(SCC(=O)c2ccc(CNC(=O)CO)s2)c2cc(Cl)cc(F)c2n1 [Example 142, N-((5-(2-((6-chloro-8-fluoro-2-methylquinazolin-4-yl)thio)acetyl)thiophen-2-yl)methyl)-2-hydroxyacetamide]
100 to 500	COc1cccc2nc(C)nc(SCC(=O)c3ccc(CNC(=O)CO)s3)c12 [Example 143, 2-hydroxy-N-((5-(2-((5-methoxy-2-methylquinazolin-4-yl)thio)acetyl)thiophen-2-yl)methyl)acetamide]
≤ 100	CCOc1ccc2nc(C)nc(SCC(=O)c3ccc(CNC(=O)CO)s3)c2c1 [Example 144, N-((5-(2-((6-ethoxy-2-methylquinazolin-4-yl)thio)acetyl)thiophen-2-yl)methyl)-2-hydroxyacetamide]
